Patent US12521358B2, “Method for selecting cancer patients for whom combination therapy with retinoid and cancer therapeutic agent is effective, and combination medicament with retinoid and cancer therapeutic agent” (RaQualia Pharma Inc., priority 2020, dated 2026)

Tests used:
[1] = system: primary human pancreatic stellate cells; test: Meflin gene (ISLR) expression by qPCR after retinoid treatment (Example 4); type: cell-based; settings: relative expression level, control (DMSO-treated cells) = 1, retinoid 1 μM, 48 hours
Experimental: (§1) The primary human pancreatic stellate cells used are those provided by Dr. Masamune, Tohoku University. The primary mouse mesenchymal stem cells used are those purchased from Cyagen Co., Ltd. Both pancreatic stellate cells and mesenchymal stem cells are considered to be the origin of CAF. As the retinoid, the retinoid contained in SCREEN-WELL Nuclear Receptor ligand library (ENZO) is used. DMEM+10% FBS is used as a culture medium. The cells are seeded in a collagen-coated dish and cultured until they are 100% confluent, and various retinoids are added to a concentration of 1 μM. After 48 hours, cells are harvested, RNA is extracted using RNeasyPLUS KIT (QIAGEN), and cDNA is synthesized using ReverseTra Ace qPCR RT Master Mix (TOYOBO). The expression level of the meflin gene (ISLR and Islr) is measured by qPCR using the Gene expression assay (Thermo Fisher scientific).

[2] = system: primary mouse mesenchymal stem cells; test: Meflin gene (Islr) expression by qPCR after retinoid treatment (Example 4); type: cell-based; settings: relative expression level, control (DMSO-treated cells) = 1, retinoid 1 μM, 48 hours
Experimental: as §1

[3] = system: primary mouse mesenchymal stem cells; test: Islr, Acta2, Col1a1 and Col3a1 expression by qPCR after retinoid treatment (Example 5); type: cell-based; settings: vs control (DMSO), 48 hours after addition; for expression level of meflin gene (Islr): FIG. 27(A); for expression level of actin gene (Acta2): FIG. 27(B); for expression level of type I collagen gene (Col1a1): FIG. 27(C); for expression level of type III collagen gene (Col3a1): FIG. 27(D)
Experimental: as §1
The same method is performed as in the experiment using the primary mouse mesenchymal stem cells in Example 4. ATRA, AM80 and AM580 are used as retinoids. The expression levels of the meflin gene (Islr), actin gene (Acta2), type I collagen gene (Col1a1) and type III collagen gene (Col3a1) are measured by qPCR.

[4] = system: mouse pancreatic cancer cells mT5; test: Tamibarotene and gemcitabine in mice transplanted with mT5 (Example 7); type: in vivo; settings: tamibarotene 3.0 mg/kg oral once a day for 17 days from Day 8; gemcitabine 50 mg/kg i.p. Day 15, 18, 21; to Day 24
Experimental: C57BL/6J female mice are subcutaneously transplanted with mouse pancreatic cancer cells mT5 (1.0×10^6 cells). […] In the Gem+AM80 group, tamibarotene (3.0 mg/kg) is orally administered once a day for 17 days from Day 8. In addition, in the Gem group and the Gem+AM80 group, gemcitabine (50 mg/kg) is intraperitoneally administered once each on Day 15, Day 18 and Day 21. In the control group, DMSO is orally administered instead of tamibarotene, and saline is intraperitoneally administered instead of gemcitabine. Tumor volume is measured before start of the AM80 administration (Day 8), Day 12, Day 15, Day 18, Day 21 and Day 24.

[5] = system: mouse pancreatic cancer cells mT5; test: AM80 alone in mice subcutaneously transplanted with mT5 (Example 6); type: in vivo
Source text: Pancreatic cancer cell mT5, which was distributed by Dr. David Tuveson, Cold Spring Harbor Laboratory, is used. mT5 is a pancreatic cancer cell established from a pancreatic tumor developed in KPC mice, which is a pancreatic cancer spontaneous onset model (Organoid models of human and mouse ductal pancreatic cancer. Cell. 2015 Jan. 15; 160 (1-2)): 324-38. Doi: 10.1016/j. cell. 2014.12.021. Epub 2014 Dec. 31.).
C57BL/6J female mice are subcutaneously transplanted with mouse pancreatic cancer cells mT5 (1.0×10^6 cells). Eight days later (Day 8), AM80 is orally administered for 15 days to mice in which tumor formation was confirmed. Depending on the dose of AM80 (0.1 mg/kg/day, 0.5 mg/kg/day, 1 mg/kg/day and 3 mg/kg/day), a total of 5 groups, namely, four AM80 administration groups and a control group (DMSO administration) are set up (n=5 in each group). Body weight and tumor volume are measured before the start of the AM80 administration (Day 8), Day 11, Day 15, Day 18 and Day 22. On Day 22, mice are euthanized, tumors are removed to prepare tissue specimens, the in situ hybridization (ISH) is performed to detect the expression of the meflin gene (Islr) and the actin gene (Acta2), and then the number of positive signals is counted for each. Furthermore, a tissue specimen of the tumor is prepared, immunostaining is performed with an anti-CD31 antibody to stain CD31, which is a marker for vascular endothelial cells, and the vascular lumen area is measured.

[6] = system: mouse pancreatic cancer cells mT5; test: Collagen arrangement in tumor stroma by second harmonic microscope (Example 16); type: in vivo; settings: tamibarotene 3.0 mg/kg oral once a day for 7 days from Day 8; vs control (DMSO); Day 15
Experimental: C57BL/6J female mice are subcutaneously transplanted with mouse pancreatic cancer cells mT5 (1.0×10^6 cells). Eight days later (Day 8), the mice are divided into two groups, a control group and a tamibarotene administration group (AM80 group) to ensure equal tumor volume (n=5 in each group). In the AM80 group, tamibarotene (3.0 mg/kg) is orally administered once a day for 7 days from Day 8. In the control group, DMSO is orally administered instead of tamibarotene. On Day 15, mice are euthanized, and tumors are removed to prepare tissue specimens. Eight to sixteen images are randomly selected from the tumor tissue specimen, the collagen arrangement is measured with a second harmonic microscope, and the curvature (linearity) is analyzed.

[7] = AM80 3 mg/kg/day vs control group, tumor removed Day 22

SMILES: CC1(C)CCC(C)(C)c2cc(C(=O)Nc3ccc(C(=O)O)cc3)ccc21 [AM580]
- ISLR expression level (mean value) [1]: 3625.326
- ISLR expression level (mean value) [2]: 5.295
- expression level of meflin gene (Islr) [3]: high
- expression level of actin gene (Acta2) [3]: low
- expression level of type I collagen gene (Col1a1) [3]: low
- expression level of type III collagen gene (Col3a1) [3]: low

SMILES: CC1=C(/C=C/C(C)=C/C=C/C(C)=C\C(=O)O)C(C)(C)CCC1 [13-cis Retinoic, 13-cis-retinoic acid]
- ISLR expression level (mean value) [1]: 7.252

SMILES: Nc1ccn([C@@H]2O[C@H](CO)[C@@H](O)C2(F)F)c(=O)n1 [Gem, gemcitabine]
- tumor growth (tumor volume) [4]: more significantly suppresses the tumor growth than the control group

SMILES: CC1=C(/C=C/C(C)=C\C=C\C(C)=C\C(=O)O)C(C)(C)CCC1 [9-cis Retinoic acid, 9-cis-retinoic acid]
- ISLR expression level (mean value) [1]: 4.894

SMILES: CC1=C(/C=C/C(C)=C/C=C/C(C)=C/C(=O)O)C(C)(C)CCC1 [ATRA, all-trans retinoic acid]
- ISLR expression level (mean value) [1]: 217.5011
- ISLR expression level (mean value) [2]: 1.693
- expression level of meflin gene (Islr) [3]: high
- expression level of actin gene (Acta2) [3]: low
- expression level of type I collagen gene (Col1a1) [3]: low
- expression level of type III collagen gene (Col3a1) [3]: low

SMILES: CC(C)(c1ccc(OCC2CO2)cc1)c1ccc(OCC2CO2)cc1 (stereo not shown) [BADGE, bisphenol A diglycidyl ether]
- ISLR expression level (mean value) [1]: 5089.576

SMILES: CC1=C(/C=C/C(C)=C/C=C/C(C)=C/C(=O)O)C(C)(C)CCC1O (stereo not shown) [4-Hydroxyretinoic acid, 4-hydroxyretinoic acid]
- ISLR expression level (mean value) [1]: 3.264
- ISLR expression level (mean value) [2]: 1.912

SMILES: COc1cc(C)c(/C=C/C(C)=C/C=C/C(C)=C/C(=O)O)c(C)c1C [Acitretin]
- ISLR expression level (mean value) [1]: 47.59
- ISLR expression level (mean value) [2]: 7.659

SMILES: COc1ccc(-c2ccc3cc(C(=O)O)ccc3c2)cc1C12CC3CC(CC(C3)C1)C2 [Adapalene, adapalene]
- ISLR expression level (mean value) [2]: 5.428

SMILES: CC1(C)CCC(C)(C)c2cc(NC(=O)c3ccc(C(=O)O)cc3)ccc21 [AM80, tamibarotene]
- expression level of meflin gene (Islr) [3]: high
- expression level of actin gene (Acta2) [3]: low
- expression level of type I collagen gene (Col1a1) [3]: low
- expression level of type III collagen gene (Col3a1) [3]: low
- number of dots of the Acta2 positive signal per high-magnification field (ISH) [5, 7]: significantly lower
- number of dots of the Islr positive signal per high-magnification field (ISH) [5, 7]: significantly higher
- vascular lumen area (anti-CD31 immunostaining) [5, 7]: significantly higher
- tumor volume ([5]; AM80 0.1, 0.5, 1 and 3 mg/kg/day oral for 15 days from Day 8, vs control (DMSO), Day 8-22): does not suppress the growth
- body weight ([5]; AM80 0.1-3 mg/kg/day oral for 15 days): does not affect the body weight
- curvature (linearity) of collagen [6]: reducing the linearity of collagen

SMILES: C/C(=C\c1ccc(C(=O)O)cc1)c1ccc2c(c1)C(C)(C)CCC2(C)C [TTNPB]
- ISLR expression level (mean value) [1]: 15.94
- ISLR expression level (mean value) [2]: 5.183

SMILES: CC(=O)OC/C=C(C)/C=C/C=C(C)/C=C/C1=C(C)CCCC1(C)C [Retinyl acetate, retinyl acetate]
- ISLR expression level (mean value) [1]: 3.29
